Data: US10363235B2, “Compositions comprising 15-HEPE and methods of treating or preventing fibrosis using same” (Afimmune Limited, priority 2014, dated 2019)
Entries after “also recorded” stand apart in the source; their conditions may differ.

How the values were obtained:
[1] = system: Lung Fibroblasts from Idiopathic Pulmonary Fibrosis (IPF) patients; test: TGF-beta induced alpha-SMA production in IPF lung fibroblasts; type: cell-based, human; settings: 100 ug/ml; 2 hours pretreatment, then TGF beta (20 ng/ml) for 48 hours; FIG. 10
Protocol: Lung Fibroblasts from Idiopathic Pulmonary Fibrosis (IPF) patients were plated at 10000 cells per well in their respective growth mediums and allowed to attach overnight. After attachment, the cells were pretreated with 15(S)-HEPE for 2 hours in their respective assay mediums. After 2 hours, the cells were then treated with compounds+/−TGF beta (20 ng/ml) for 48 hours. After 48 hours, the conditioned media was collected and frozen at −80° C. for future collagen analysis. After collection, the cells were stained for SMA I expression. The collagen ELISA was performed according to the manufacturer's instructions.

[2] = system: Lung Fibroblasts from Idiopathic Pulmonary Fibrosis (IPF) patients; test: cytotoxicity in IPF lung fibroblasts; type: cell-based, human; settings: treatment for 48 hours
[3] = system: mouse model of non-alcoholic steatohepatitis (NASH); test: NASH mouse model (streptozotocin plus high fat diet), liver fibrosis, Example 2; type: in vivo, mice; settings: 500 mg/kg orally once daily from 5 to 9 weeks of age; compared with EPA (500 mg/kg) or vehicle; FIG. 9
Protocol: Non-alcoholic steatohepatitis (NASH) was induced in mice by a single subcutaneous injection of 200 μg of streptozotocin (Sigma Aldrich) two days after birth and feeding with high fat diet (57 kcal % fat, CLEA Japan) after 4 weeks of age. After randomization, each mouse was orally administered vehicle, telmisartan (10 mg/kg), 15-HEPE (500 mg/kg) or EPA (500 mg/kg) once daily from 5 to 9 weeks of age. At the end of the 9th week, the mice were sacrificed and analyzed.

[4] = system: mouse model of NAFLD; test: mouse model of NAFLD (streptozotocin plus high-fat diet), Example 1; type: in vivo, mice (C57/BL6); settings: for fibrosis (histology, sirius red staining): compared to vehicle, FIGS. 7A-7D; for NAFLD Activity Score (NAS): FIGS. 8A-D
Protocol: The purpose of this study was to examine the effects of 15-HEPE and 15-HETrE compared to vehicle and to telmisartan in a mouse model of NAFLD.
C57/BL6 mice obtained from Charles River Laboratories were divided into 6 study groups as follows:
Group 1 (Vehicle): Twelve mice were each administered a single dose of steptozotocin after birth and fed a high-fat diet for four weeks. The mice were then fed vehicle in a volume of 10 mL/kg once daily from 5 to 12 weeks of age.
Group 2 (telmisartan): Twelve mice were each administered a single dose of steptozotocin after birth and fed a high-fat diet for four weeks. The mice were then fed telmisartan in an amount of 5 mg/kg once daily from 5 to 12 weeks of age.
Group 3 (15-HEPE, low dose): Twelve mice were each administered a single dose of steptozotocin after birth and fed a high-fat diet for four weeks. The mice were then fed 15-HEPE in an amount of 50 mg/kg once daily from 5 to 12 weeks of age.
Group 4 (15-HEPE, high dose): Twelve mice were each administered a single dose of steptozotocin after birth and fed a high-fat diet for four weeks. The mice were then fed 15-HEPE in an amount of 500 mg/kg once daily from 5 to 12 weeks of age.
Group 5 (15-HETrE, low dose): Twelve mice were each administered a single dose of steptozotocin after birth and fed a high-fat diet for four weeks. The mice were then fed 15-HETrE in an amount of 10 mg/kg once daily from 5 to 12 weeks of age.
Group 6 (15-HETrE, high dose): Twelve mice were administered a single dose of steptozotocin after birth and fed a high-fat diet for four weeks. The mice were then fed 15-HETrE in an amount of 100 mg/kg once daily from 5 to 12 weeks of age.
At 12 weeks of age, all mice were assessed for changes in: • serum biochemistry (e.g., ALT levels, LDL levels, VLDL levels, HDL levels, triglyceride levels, total cholesterol level), • fibrosis (e.g., histology using sirius red staining), and • NAFLD activity score (including, e.g., H&E staining histology). Results

[5] = 15-HEPE levels in tissues of dosed rats; type: in vivo; settings: 500 mg/kg for 7 days, treated vs untreated control, FIG. 11
Protocol: Rats (n=5) were dosed with 15-HEPE (DS102) 500 mg/kg for 7 days and organs excised to analyse 15-HEPE levels in the tissues of treated vs untreated animals.

[6] = telmisartan 5 mg/kg once daily from 5 to 12 weeks of age, vs vehicle

Question: Which “TGF-beta induced alpha-SMA production” value [1] does the source give for `CCC=CCC(O)C=CC=CCC=CCC=CCCCC(=O)O` (stereo not shown) [15-HEPE, 15-Hydroxy-eicosa-5,8,11,13,17-pentaenoic acid] here?
Answer: inhibited; also recorded: inhibition

Question: What about the cytotoxicity [2] of the same compound?
Answer: No cytotoxicity

Question: And the “treating and/or preventing liver fibrosis” value [3]?
Answer: more effective

Question: What about the “fibrosis (histology, sirius red staining)” value ([4]; high-dose 15-HEPE 500 mg/kg once daily from 5 to 12 weeks of age, equivalent to telmisartan) of the same compound?
Answer: statistically equivalent low amount of fibrosis

Question: What about the “plasma ALT levels” value ([4]; high-dose 15-HEPE 500 mg/kg once daily from 5 to 12 weeks of age, vs high-dose 15-HETrE group (100 mg/kg), FIG. 6) of the same compound?
Answer: significantly lower

Question: And the “NAFLD Activity Score (NAS)” value ([4]; high-dose 15-HEPE 500 mg/kg once daily from 5 to 12 weeks of age, vs placebo (vehicle), p<0.01)?
Answer: significantly lower

Question: What about the “plasma ALT levels” value ([4]; high-dose 15-HEPE 500 mg/kg once daily from 5 to 12 weeks of age, vs vehicle, FIG. 6) of the same compound?
Answer: significantly lower

Question: And the Total cholesterol levels ([4]; low-dose 15-HEPE 50 mg/kg once daily from 5 to 12 weeks of age, vs vehicle, FIG. 4)?
Answer: significantly lower

Question: And the “15-HEPE level in the liver” value [5]?
Answer: significantly more

Question: What about the “15-HEPE level in the lung” value [5] of the same compound?
Answer: significantly more

Question: What does the source list for `CCCCCC(O)/C=C/C=C\C/C=C\CCCCCCC(=O)O` (stereo not shown) [15-HETrE, 15-hydroxyeicosa-8(Z),11(Z),13(E)-trienoic acid]?
Answer: serum triglycerides ([4]; low-dose 15-HETrE 10 mg/kg once daily from 5 to 12 weeks of age, vs vehicle (Mann Whitney), FIG. 1): significantly lower; VLDL levels ([4]; low-dose 15-HETrE 10 mg/kg once daily from 5 to 12 weeks of age, vs vehicle, FIG. 2): significantly lower; LDL levels ([4]; low-dose 15-HETrE 10 mg/kg once daily from 5 to 12 weeks of age, vs vehicle, FIG. 3): significantly lower; Total cholesterol levels ([4]; low-dose 15-HETrE 10 mg/kg once daily from 5 to 12 weeks of age, vs vehicle, FIG. 4): significantly lower

Question: With `CCCc1nc2c(C)cc(-c3nc4ccccc4n3C)cc2n1Cc1ccc(-c2ccccc2C(=O)O)cc1` [telmisartan, 2-(4-{[4-Methyl-6-(1-methyl-1H-1,3-benzodiazol-2-yl)-2-propyl-1H-1,3-benzodiazol-1-yl]methyl}phenyl)benzoic acid] as the compound, how does the “fibrosis (histology, sirius red staining)” value ([4]; telmisartan 5 mg/kg once daily from 5 to 12 weeks of age) read?
Answer: low amount of fibrosis

Question: And the Hydroxyproline levels [4, 6]?
Answer: did not show statistically significant reductions

Question: And the LDL levels [4, 6]?
Answer: did not show statistically significant reductions

Question: And the Total cholesterol levels [4, 6]?
Answer: did not show statistically significant reductions

Question: And the VLDL levels [4, 6]?
Answer: did not show statistically significant reductions

Question: What about the “plasma ALT levels” value [4, 6] of the same compound?
Answer: did not show statistically significant reductions

Question: What about the serum triglycerides [4, 6] of the same compound?
Answer: did not show statistically significant reductions

Question: And the “NAFLD Activity Score (NAS)” value ([4]; telmisartan 5 mg/kg once daily from 5 to 12 weeks of age, vs vehicle, p<0.001)?
Answer: significantly lower
